Measurements published in patent US6663881B2 (priority 1993, dated 2003).

What was measured:
[1] = system: balloon traumatized pig femoral arteries; assay: Biological stenting of balloon traumatized pig femoral arteries (luminal area morphometry); format: in vivo
Description: Pig femoral arteries were traumatized as described in Example 7, and then treated with cytochalasin B. About 1.5 to about 2 ml of cytochalasin B at 0.1 μg/ml was infused into portions of the artery that had been separated from other portions by ligatures. The artery was then pressurized for 3 minutes and the fluid aspirated. Approximately 8 to about 30 lambda of the solution is retained in the interstitial space surrounding the cells in the tunica media. Ten femoral arteries (two arteries obtained from each of the 5 pigs that were treated according to the single dose protocol described in Example 7) were then evaluated histologically at 4 days or 3 weeks after cytochalasin B adminstration. The maximal luminal area of each artery was measured and calculated from digitized microscopic images by a BQ System IV computerized morphometric analysis system (R & M Biometrics, Inc., Nashville, Tenn.). This experiment was repeated with 5 additional pigs (two arteries per pig; cytochalasin B dose=0.1 μg/ml, applied for 3 minutes at 1 atm pressure; same time points). The data obtained from the two experiments were combined.
The luminal area of the traumatized and cytochalasin B-treated segments of the arteries were also compared to the luminal area of the normal, untreated region of the femoral artery proximal to the test area. […]

[2] = system: balloon traumatized swine coronary arteries; assay: Dose-response study of balloon traumatized swine coronary arteries (Table 14, morphometry); format: in vivo
[3] = 7 day intravenous toxicity study in rats (Table 11); format: in vivo; conditions: 10 μg/ml IV four times a day for 7 days (800 μg/kg daily)
Description: To determine the toxicity of cytochalasin B, rats (4 male and 4 female) were injected with 10 μg/ml cytochalasin B four times a day for 7 days (Table 11). Data regarding body weight changes, food consumption, food efficiency, hematology parameters, coagulation parameters, serum chemistry parameters, and gross necropsy findings were collected. […] There were no gross or microscopic changes detected in the heart to account for the elevation. Thus, daily administration of cytochalasin B to rats at a dose of 800 μg/kg (for a total injected dose of 5600 μg/kg) may have an effect on heart weight of female (but not male) rats. However, clotted blood was not routinely removed from the heart lumens prior to weighing the heart.

[4] = system: Vascular smooth muscle cells (BO54); assay: Scratch-migration assay; format: cell-based, baboon; design: key to Migration Grade in an Undisturbed Region of the Well / Migration Grade in the Cleared Area of the Well: −=no migration; +1=minimal; +2=mild; +3=moderate; +4=marked (maximum density; limit of cell contact inhibition) migration
Description: Scratch assays to determine the extent of smooth muscle cell migration inhibition by cytochalasin B were performed in accordance with the following protocol:
Vascular smooth muscle cells (BO54) were derived from explants of baboon aortic smooth muscle, as described in Example 10. The cells were grown in flat bottom, six well tissue culture plates, which hold about 5 ml of medium. The vascular smooth muscle cells were plated at 200,000 cells/well and placed at 37° C. in a humidified 5% CO2 incubator for 18 hours. The wells were then scratched with a sterile portion of a single edge razor blade that was held by clamp or pliers and was brought aseptically into contact with the bottom of the well at a 90° angle. The cells from a small area along the scratch were removed by a sterile cotton tipped applicator while the blade was in contact with the bottom of the well. After incubation, the presence of cells in the “scratched” area is indicative of cell migration across the scratch line.
Briefly, a stock solution of cytochalasin B (Sigma Chemical Co.) in dimethyl sulfoxide (DMSO) at 1 mg/ml was prepared. Test dilutions of cytochalasin B or control medium were added. Each experiment included two sets of plates:
A set: Test agent exposure for 1, 3, 6, 8 and 10 days only; and
B set: Test agent exposure for 1, 3, 6, 8 and 10 days, followed by a seven day recovery time with control medium.
Both sets of plates were fixed (10% formalin in PBS) and stained (0.02% crystal violet) at the end of the timed exposures. Test concentrations for cytochalasin B were 1, 0.1 and 0.01 μg/ml, and a negative medium control was included. Fresh medium and drug were supplied 3 times per week.
In this Table, “M” indicates Migration Grade, wherein −=no migration; +1=minimal; +2=mild; +3=moderate; and +4=marked (maximum density; limit of cell contact inhibition) migration of vascular smooth muscle cells into the cleared area adjacent to the scratch. In this Table, “T” denotes a morphological Toxicity Grade, wherein −=no toxicity; +1=minimal; +2=mild; +3=moderate; and +4=marked toxicity. The migration results are expressed as “Grade in the Cleared Area of the Well/Grade in an Undisturbed Region of the Well.” The toxicity values represent a grade for all cells in each well.

[5] = 7-day Recovery Post Exposure, Day 1, 0.01 μg/mL
[6] = 7-day Recovery Post Exposure, Day 1, 0.1 μg/mL
[7] = 7-day Recovery Post Exposure, Day 1, 1.0 μg/mL
[8] = 7-day Recovery Post Exposure, Day 3, 0.01 μg/mL
[9] = 7-day Recovery Post Exposure, Day 3, 0.1 μg/mL
[10] = 7-day Recovery Post Exposure, Day 6, 0.1 μg/mL
[11] = 7-day Recovery Post Exposure, Day 6, 1.0 μg/mL
[12] = 7-day Recovery Post Exposure, Day 8, 0.01 μg/mL
[13] = 7-day Recovery Post Exposure, Day 8, 0.1 μg/mL
[14] = 7-day Recovery Post Exposure, Day 8, 1.0 μg/mL
[15] = 7-day Recovery Post Exposure, Day 10, 0.01 μg/mL
[16] = 7-day Recovery Post Exposure, Day 10, 0.1 μg/mL
[17] = 7-day Recovery Post Exposure, Day 10, 1.0 μg/mL
[18] = Continuous Exposure, Day 1, 0.01 μg/mL
[19] = Continuous Exposure, Day 1, 0.1 μg/mL
[20] = Continuous Exposure, Day 6, 0.01 μg/mL
[21] = Continuous Exposure, Day 6, 0.1 μg/mL
[22] = Continuous Exposure, Day 8, 0.01 μg/mL
[23] = Continuous Exposure, Day 8, 0.1 μg/mL
[24] = Continuous Exposure, Day 10, 0.01 μg/mL
[25] = Continuous Exposure, Day 10, 0.1 μg/mL

## C=C1[C@@H](C)[C@H]2[C@H](Cc3ccccc3)NC(=O)[C@]23OC(=O)/C=C/[C@H](O)CCC[C@@H](C)C/C=C/[C@H]3[C@@H]1O [cytochalasin B]
[1]; 0.1 μg/ml for cytochalasin B
  lumen area of test region vs normal control segment of the same artery: approximately two times as large
[1]; 0.1 μg/ml, 4 day and 3 week post-treatment
  luminal area vs other test agents or controls: larger luminal area
[1]; 0.1 μg/ml, two way analysis of variance
  artery lumen areas over three weeks vs diluent control: statistically significant difference (p<0.05)
[1]; 10 μg/ml dose, dose response study
  toxicity to the vascular smooth muscle cells: appeared to be toxic
[1]; about 0.1 to about 10.0 μg/ml
  myofilament reformation (electron micrographs): myofilament reformation was retarded
[1]; pig, in vivo
  constriction or vascular remodeling: did not undergo the constriction or chronic geometrical (vascular) remodeling
[1]; vs untreated balloon traumatized arteries
  incidence of mural microthrombi: decreased
[2]; 0.1, 1.5 or 10.0 μg/ml, three weeks after intervention
  coronary luminal area: sustained arterial dilation
[2]; in vivo
  myocardial or arterial lesions (histology): did not result in myocardial or arterial lesions
[3]
  adverse effect: elevation of the mean relative heart weight in treated female animals
[4]; 0.1 μg/ml, continuous exposure
  morphological toxicity grade: −3 to +1
[4]; [5]
  Migration Grade in an Undisturbed Region of the Well: +4
  Migration Grade in the Cleared Area of the Well: +3
[4]; [6]
  Migration Grade in an Undisturbed Region of the Well: +4
  Migration Grade in the Cleared Area of the Well: +3
[4]; [7]
  Migration Grade in an Undisturbed Region of the Well: +3
  Migration Grade in the Cleared Area of the Well: +2
[4]; [8]
  Migration Grade in an Undisturbed Region of the Well: +4
  Migration Grade in the Cleared Area of the Well: +3
[4]; [9]
  Migration Grade in an Undisturbed Region of the Well: +4
  Migration Grade in the Cleared Area of the Well: +3
[4]; 7-day Recovery Post Exposure, Day 6, 0.01 μg/mL
  Migration Grade in an Undisturbed Region of the Well: +4/+4
[4]; [10]
  Migration Grade in an Undisturbed Region of the Well: +4
  Migration Grade in the Cleared Area of the Well: +3
[4]; [11]
  Migration Grade in an Undisturbed Region of the Well: +3
  Migration Grade in the Cleared Area of the Well: +2
[4]; [12]
  Migration Grade in an Undisturbed Region of the Well: +4/+4
  Migration Grade in the Cleared Area of the Well: +4/+4
[4]; [13]
  Migration Grade in an Undisturbed Region of the Well: +4
  Migration Grade in the Cleared Area of the Well: +3
[4]; [14]
  Migration Grade in an Undisturbed Region of the Well: +3
  Migration Grade in the Cleared Area of the Well: +2
[4]; [15]
  Migration Grade in an Undisturbed Region of the Well: +4/+4
  Migration Grade in the Cleared Area of the Well: +4/+4
[4]; [16]
  Migration Grade in an Undisturbed Region of the Well: +4/+4
  Migration Grade in the Cleared Area of the Well: +4/+4
[4]; [17]
  Migration Grade in an Undisturbed Region of the Well: +3
  Migration Grade in the Cleared Area of the Well: +2
[4]; [18]
  Migration Grade in an Undisturbed Region of the Well: +3
  Migration Grade in the Cleared Area of the Well: +1
[4]; [19]
  Migration Grade in an Undisturbed Region of the Well: +3
  Migration Grade in the Cleared Area of the Well: +1
[4]; Continuous Exposure, Day 1, 1.0 μg/mL
  Migration Grade in an Undisturbed Region of the Well: +2
[4]; Continuous Exposure, Day 3, 0.1 μg/mL
  Migration Grade in an Undisturbed Region of the Well: +4
[4]; [20]
  Migration Grade in an Undisturbed Region of the Well: +4
  Migration Grade in the Cleared Area of the Well: +3
[4]; [21]
  Migration Grade in an Undisturbed Region of the Well: +4
  Migration Grade in the Cleared Area of the Well: +2
[4]; Continuous Exposure, Day 6, 1.0 μg/mL
  Migration Grade in an Undisturbed Region of the Well: +2
[4]; [22]
  Migration Grade in an Undisturbed Region of the Well: +4
  Migration Grade in the Cleared Area of the Well: +3
[4]; [23]
  Migration Grade in an Undisturbed Region of the Well: +4
  Migration Grade in the Cleared Area of the Well: +2
[4]; Continuous Exposure, Day 8, 1.0 μg/mL
  Migration Grade in an Undisturbed Region of the Well: +2
[4]; [24]
  Migration Grade in an Undisturbed Region of the Well: +4
  Migration Grade in the Cleared Area of the Well: +3
[4]; [25]
  Migration Grade in an Undisturbed Region of the Well: +4
  Migration Grade in the Cleared Area of the Well: +2
[4]; Continuous Exposure, Day 10, 1.0 μg/mL
  Migration Grade in an Undisturbed Region of the Well: +2
